Measured values from paper PMC7590976, “Detection of Active Granzyme A in NK92 Cells with Fluorescent Activity-Based Probe” (Journal of Medicinal Chemistry, 2020).
Values joined by “and” are separate entries in the source; they are usually repeats but may differ in a detail not shown here. Equal values may be shown once. “Also recorded” adds a separate entry of the source. Non-standard residues stand in square brackets, D forms with d. *: point of attachment. Oic = O=C(O)[C@@H]1C[C@@H]2CCCC[C@@H]2N1; ACC = NC(=O)Cc1cc(=O)oc2cc(N*)ccc12; Tic = O=C(O)[C@@H]1Cc2ccccc2CN1

Experiments:
GrA [1] = molecular target: T1, GrA (Homo sapiens, UniProt P12544); test: Steady-state Michaelis–Menten kinetics of fluorogenic ACC substrates with GrA; format: biochemical
T1 construct: made in house; host or cells: Pichia pastoris
T1 sequence (P12544 29-262): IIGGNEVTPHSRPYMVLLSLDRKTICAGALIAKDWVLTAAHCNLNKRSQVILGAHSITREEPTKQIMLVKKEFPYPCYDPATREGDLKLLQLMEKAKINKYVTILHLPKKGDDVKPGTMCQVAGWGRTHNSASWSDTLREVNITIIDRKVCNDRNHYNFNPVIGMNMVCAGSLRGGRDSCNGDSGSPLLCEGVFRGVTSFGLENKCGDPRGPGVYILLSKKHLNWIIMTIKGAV
Source text: All chemical and biological reagents were purchased from commercial suppliers and used without further purification. The following reagents for solid phase peptide synthesis, Rink Amide RA resin (particle size 200–300 mesh, loading 0.74 mmol/g), 2-chlorotrityl chloride resin, Fmoc-protected amino acids, biotin, 1-[bis(dimethylamino)methylene]-1H-1,2,3-triazolo[4,5-b] pyridinium 3-oxid hexafluorophosphate (HATU), piperidine, diisopropylcarbodiimide (DICI), and trifluoroacetic acid (TFA), were purchased from Iris Biotech GmbH (Marktredwitz, Germany); anhydrous N-hydroxybenzotriazole (HOBt, purity >98%) was purchased from Creosauls; 2,4,6-collidine (2,4,6-trimethylpyridine), HPLC pure acetonitrile, and triisopropylsilane (TIPS) were purchased from Sigma-Aldrich (Poznan, Poland); and N,N-diisopropylethylamie (DIPEA) was purchased from VWR International (Gdansk, Poland). Solvents such as N,N-dimethylformamide (DMF), dichloromethane (DCM), methanol (MeOH), diethyl ether (Et2O), and acetic acid (AcOH) were purchased from Avantor (Gliwice, Poland). Cy5 was purchased from Lumiprobe GmbH (Hannover, Germany). Human neutrophil elastase was purchased from BioCentrum (Kraków, Poland) and proteinase 3 from Athens Research Technology (Athens, USA). Anti-GrA antibody (rabbit, monoclonal, ab209205) was obtained from Abcam (Cambridge, Great Britain). All cell lines were purchased from DSMZ (Braunschweig, Germany) or ATCC (Manassas, USA). All kinetic assays were performed using a Spectra Max Gemini XPS spectrofluorometer (Molecular Devices) on 96-well Corning plates. The parameters of the process were as follows: 37 °C; excitation/emission wavelength, 355/460 nm; cutoff, 455 nm; varying concentrations of substrates and enzyme. All measurements were performed in duplicate, and the data represent the average of these repetitions

GrK = molecular target: T2, GrK (Homo sapiens, UniProt P49863); test: GrA substrate selectivity testing on GrK; format: biochemical; settings: 488 nM GrK
T2 construct: made in house; host or cells: Pichia pastoris
T2 sequence (P49863 27-264): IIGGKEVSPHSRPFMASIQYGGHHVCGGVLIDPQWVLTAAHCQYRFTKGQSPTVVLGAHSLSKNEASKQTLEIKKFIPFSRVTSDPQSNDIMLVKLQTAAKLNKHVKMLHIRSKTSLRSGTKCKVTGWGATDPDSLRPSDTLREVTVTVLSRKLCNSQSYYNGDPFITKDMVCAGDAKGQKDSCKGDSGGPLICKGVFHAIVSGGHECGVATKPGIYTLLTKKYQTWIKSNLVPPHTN
Source text: (§1) Since GrA and GrK are the most structurally similar Grs, they may recognize and hydrolyze the same natural and synthetic substrates. Therefore, we tested whether our new GrA substrates are also recognized by GrK or GrB (Figure 3A). For this experiment, we screened substrates SK8 to SK28 and a GrKref substrate (Ac-Tyr-Arg-Phe-Lys-ACC) or GrBref substrate (Ac-Ile-Glu-Pro-Asp-ACC) at the same concentration using a plate reader, and we monitored the increase in fluorescence over time. The linear portions of the diagram were analyzed, and as we expected, the majority of the substrates were well recognized by GrK, even better than their recognition by GrA. […] Based on that, we concluded that Tic-Gly-Oic-Arg is a leading sequence for a specific potent inhibitor and ABP for GrA.
(§2) Figure 3 (A) GrA substrate selectivity testing on GrK and GrB. Substrates SK8–SK28 and the reference GrK and GrB substrates were placed in a 96-well plate at a concentration of 200 μM and treated with GrK or GrB. […] Data present the average of 2 replicates as adjusted RFU/s.
(§3) Figure S2. Selectivity of SK15 substrate toward selected serine proteases (GrA, GrB, GrM, GrK,
(§4) PR3, and hNE). The reference substrates were as follows: Ac-Ile-Gly-Pro-Arg-ACC for GrA, Ac -Tyr-
Arg-Phe-Lys-ACC for GrK, Ac-Ile-Glu-Pro-Asp-ACC for GrB, Ac-Lys-Val-Pro-Leu-ACC for GrM, […]

[2] = test system: human neutrophil elastase (hNE); test: Selectivity of SK15 substrate toward hNE; format: biochemical; settings: Figure S2: substrate 67 µM, 3.3 nM hNE
Source text: as §1, §3, §4
(§5) Arg-Phe-Lys-ACC for GrK, Ac-Ile-Glu-Pro-Asp-ACC for GrB, Ac-Lys-Val-Pro-Leu-ACC for GrM,
(§6) Ac-Glu(O-Bzl)-Lys(Ac)-Hyp(Bzl)-Nva-ACC for PR3 and Ac-Arg(NO)2-Glu(Bzl)-Oic-Abu-ACC for hNE.
(§7) Substrates were placed in a 96-well plate at a concentration of 67 µM and treated with optimal
(§8) and emission wavelengths. Data present the average of 2 replicates as adjusted RFU/s.
(§9) Figure S3. Detection of active GrA in NK92 cells. […]

granzyme M (GrM) = test: Selectivity of SK15 substrate toward GrM; format: biochemical, human; settings: Figure S2: substrate 67 µM, 74 nM GrM
Source text: as §1, §3, §4, §5, §6, §7, §8, §9

GrA [3] = test: Screening of individual substrates SK7–SK28 with GrA; format: biochemical, human; settings: Figure 2A: substrate 1 μM, 89 nM enzyme (method b64: 67 μM, 583 nM GrA); adjusted RFU/s, average of 2 replicates
Source text: Data present the average of 2 replicates as adjusted RFU/s. (B) Comparison of SK7 (blue) and SK15 (red) structures.

proteinase 3 (PR3) = test: Selectivity of SK15 substrate toward PR3; format: biochemical; settings: Figure S2: substrate 67 µM, 3.4 nM PR3
Source text: as §1, §3, §4, §5, §6, §7, §8, §9

GrB = molecular target: T3, GrB (Homo sapiens, UniProt P10144); test: GrA substrate selectivity testing on GrB; format: biochemical; settings: substrate 200 μM (Fig 3A) or 67 μM, 18 nM GrB
T3 construct: made in house; host or cells: Pichia pastoris
Source text: as §1, §2, §3, §4, §5, §6, §7, §8
Figure S3. Detection of active GrA in NK92 cells.
(also on this page, place not known: S K15 hNE) . Ac-Tyr- -Arg(NO)2-Glu(Bzl)-Oic-Abu-ACC ( 89 G rA cell s. reference reference SK15 reference SK15 reference SK15 reference SK15 reference SK15 0 50 100 substrate turnover, %RFU/s PR3GrMGrBGrK hNEGrA SK15 selectivity) […]

[4] = GrA 93 nM, assay buffer pH 7.5, 37 °C, ACC fluorescence 355/460 nm

T3 sequence (P10144 21-247): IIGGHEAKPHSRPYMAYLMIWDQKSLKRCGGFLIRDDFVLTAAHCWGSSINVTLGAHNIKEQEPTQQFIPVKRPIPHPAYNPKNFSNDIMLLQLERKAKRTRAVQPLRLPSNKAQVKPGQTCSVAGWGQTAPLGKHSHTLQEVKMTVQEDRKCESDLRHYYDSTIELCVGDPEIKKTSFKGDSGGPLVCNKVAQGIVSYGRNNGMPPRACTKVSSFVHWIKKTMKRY

## Ac-[Tic]G[Oic]R-{ACC} (SMILES CC(=O)N1Cc2ccccc2C[C@H]1C(=O)NCC(=O)N1[C@H](C(=O)N[C@@H](CCCNC(=N)N)C(=O)Nc2ccc3c(CC(N)=O)cc(=O)oc3c2)C[C@@H]2CCCC[C@@H]21) [SK15]
GrA [1]; [4]
  kcat: 0.27 ± 0.0029 s⁻¹
  kcat/KM: 3100 M^–1 s^–1 and 3100 ± 80 s^–1 M^–1
GrA [1]; GrA 93 nM, substrate 1000–7.81 μM, 50 mM Tris, 100 mM NaCl, 5 mM CaCl2, 0.01% Tween-20, pH 7.5, 37 °C, ACC fluorescence 355/460 nm, Michaelis–Menten nonlinear regression, duplicate
  Km: 87.4 ± 1.3 µM
GrA [1]; ratio to SK7
  GrA activity against the substrate relative to the reference sequence SK7: approximately 40 fold
GrK; Figure 3A and S2, substrate 200 μM (Fig 3A) or 67 μM (Fig S2), adjusted RFU/s, 2 replicates
  hydrolysis by GrK: 20%
GrK; substrate 200 μM (Fig 3A) or 67 μM
  hydrolysis by GrK (in words): barely hydrolyzed
[2]
  recognition by hNE (in words): not recognized
Granzyme M (GrM)
  recognition by GrM (in words): not recognized
GrA [3]
  hydrolysis of individual substrate by GrA (in words): most active substrate
Proteinase 3 (PR3)
  recognition by PR3 (in words): not recognized
GrB
  hydrolysis by GrB (in words): inactive; also recorded: not recognized
